Assay: Compatibility test of the active ingredient with pharmaceutical additives (storage, HPLC)
Assay type: physicochemical
Conditions: 60° C., relative humidity 75%, one week
Experimental: Specifically, 4-amino-5-chloro-N-[(1R,3r,5S)-8-methyl-8-azabicyclo[3.2.1]oct-3-yl]-2-[(1S)-1-methylbut-2-ynyloxy]benzamide was admixed with various pharmaceutical additives in weight proportions in Table 2, the resulting compositions were weighed in transparent glass bottles, and were stored at 60° C., relative humidity of 75% for one week while keeping the lid open. Various fillers, disintegrators, binders, lubricants, and others were used as the pharmaceutical additives. As a control, 4-amino-5-chloro-N-[(1R,3r,5S)-8-methyl-8-azabicyclo[3.2.1]oct-3-yl]-2-[(1S)-1-methylbut-2-ynyloxy]benzamide alone was weighed in a transparent glass bottle and was stored under the above-mentioned conditions. The samples before and after storage were evaluated using high-performance liquid chromatography (HPLC). The stabilities of the samples were evaluated based on the total amount of decomposition products (%), the amount (%) of main decomposition product at a retention time (RRT) of 1.37, and the residual ratio of content (%) of the active ingredient after storage. […] Total amount of decomposition products (%)=Total sum of the amounts of individual decomposition products Residual ratio of content (%)=[(Content after storage)/(Content before storage)]×100 (HPLC condition)
The respective samples before and after storage were mixed with an extraction medium, stirred for sixty minutes, and centrifuged at 3000 rpm for fifteen minutes. The resulting supernatants were assayed by liquid chromatography to thereby determine the amounts of decomposition products and the content of the active ingredient. • Extraction medium: 30% by volume aqueous solution of acetonitrile • Detector: Ultraviolet absorptiometer • Mobile phase A: Mixture of water/acetonitrile/(sodium perchlorate monohydrate)/(perchloric acid) (900:100:7:1, V/V/W/V) • Mobile phase B: Mixture of acetonitrile/water/(sodium perchlorate monohydrate)/(perchloric acid) (900:100:7:1, V/V/W/V) • Column: Stainless steel tube having an inner diameter of 4.6 mm and a length of 15 cm, charged with 3-μm octadecylsilylated silica gel for liquid chromatography • Column temperature: Constant temperature around 40° C.

CC#C[C@H](C)Oc1cc(N)c(Cl)cc1C(=O)NC1CC2CCC(C1)N2C (stereo partly drawn) [the active ingredient, 4-amino-5-chloro-N-[(1R,3r,5S)-8-methyl-8-azabicyclo[3.2.1]oct-3-yl]-2-[(1S)-1-methylbut-2-ynyloxy]benzamide]
Decomposition on storage, in words (compared within additive class or with control): no decomposition product | Amount of main decomposition product at RRT = 1.37 (%) (active ingredient admixed with additive (additive rate 100, 50 or 15 to the active ingredient), lid open, HPLC external standard method): 0.00% | Residual ratio of content (%) (active ingredient admixed with additive, lid open, content after/before storage x100): 99.6% | Total amount of decomposition products (%) (active ingredient admixed with additive, lid open, sum of individual decomposition products): 0.00%

— US20070155780A1, “Stabilized composition containing 4-amino-5-chloro-n-[(1r, 3r, 5s)-8-methyl-8-azabicyclo[3.2.1]oct-3-y1]-2-[1-methylbut-2-ynyloxy]benzamide” (priority 2004, published 2007)
